Laboratory results from article PMC10221466, “Isolation of Nocuolin A and Synthesis of New Oxadiazine Derivatives. Design, Synthesis, Molecular Docking, Apoptotic Evaluation, and Cathepsin B Inhibition” (Marine Drugs, 2023).
“Also recorded” adds a separate entry of the source. Where two headings read alike, the source gives them in different places. Starred links: 1 amine or outer side, 2 acyl side, 3 side chain; linkers in the order of their positions; H or OH if unused. Positions of bridges follow the written chain, without caps; N, C: chain ends. Non-standard residues stand in square brackets, D forms with d. Residues, ends and D or L forms follow the SMILES beside them. Chains are numbered I, II in the order given. Actinocin(9to1) = Cc1c2oc3c(C)ccc(C(=O)[*:1])c3nc-2c(C(=O)[*:2])c(N)c1=O; NMeV = CN[C@H](C(=O)O)C(C)C; Sar = CNCC(=O)O

Columns and labels:
[1] = system: ACHN cells; test: SRB viability assay, ACHN cells; format: cell-based; conditions: Homo sapiens, 72 h
Description: (§1) Two tumour cell lines, ACHN (Human kidney carcinoma) and Hepa-1c1c7 (Human liver carcinoma), and two non-tumour cell lines, TKPTS (Mus musculus kidney normal) and FL83B (Mus musculus liver normal), were used in this study. The cell lines were purchased by the company VALORALIA I MÁS D, SL. From LGC Standards, which is the exclusive distributor of American Type Culture Collection (ATTC) products. […] Likewise, Hepa-1c1c7 (CRL-2026 BSL 1) is an epithelial cell line that was isolated from the liver of a patient with hepatoma. On the other hand, TKPTS (CRL-3361 BSL 2) is a normal cell line with epithelial-like morphology that was isolated in 1997 from the proximal tubule of a mouse kidney. Finally, FL83B (CRL-2390 BSL 1) is a hepatocyte cell that was isolated from the liver of a 15- to 17-day-old foetal mouse in 1969. The cells were maintained in a Dulbecco's modified eagle medium (DMEM, Sigma-Aldrich St. Louis, USA) supplemented with 2 mM L-glutamine (AppliChem, Denmark), 10% foetal bovine serum (FBS, Sigma-Aldrich, USA), 100 units/mL of penicillin and 100 µg/mL of streptomycin (Fisher Scientific, Pittsburgh, USA) in culture flasks, in an incubator with a humidified atmosphere containing 5% CO2, at 37 °C under hypoxic conditions (1% O2), managing to mimic the tumour microenvironment in vivo.
(§2) Cells (200 µL, 2 × 10^4 cells/well) were seeded in 96-well plates and were cultured for 12 h at 37 °C under hypoxic conditions (1% O2). Subsequently, the samples dissolved in dimethyl sulfoxide (DMSO ≥ 99.9% Sigma-Aldrich, CAS Number 67-68-5) were added at different concentrations for 72 h. Actinomycin D (ACT ≥ 95% Sigma-Aldrich, CAS Number 50-76-0) was used as a positive control. Cells were then fixed with 10% trichloroacetic acid (TCA ≥ 99.0% Sigma-Aldrich, CAS Number 76-03-9) for 1 h at 4 °C. After washing with distilled water, 100 μL of 0.4% sulforhodamine B (SRB Dye content 75 % Sigma-Aldrich, CAS Number 3520-42-1) in 1% acetic acid (AcOH ≥ 99.0% Sigma-Aldrich, CAS Number 64-19-7) were added to each well and incubated for 20 min. After washing them three times with 1% TCA, the plates were air-dried, and stained cells were dissolved with 100 μL/well of 10 mM unbuffered tris(hydroxymethyl)aminomethane (Tris Base ≥ 99.9% Sigma-Aldrich, CAS Number 77-86-1). The optical density of the microplates was measured at 540 nm, using an ELISA plate reader, SpectraMax® i3, Molecular Devices.
(§3) All analyses were performed using version 9.0.0 of GraphPad Prism Software LLC from 1994–2020 (www.graphpad.com, accessed on 2 January 2023). Using non-linear regression, the values of 50% cytotoxic concentration (CC50) and 50% inhibitory concentration (IC50) were determined. […]

[2] = molecular target: T1, cathepsin B (Mus musculus, UniProt P10605); test: Inhibition of cathepsin B activity, Hepa-1c1c7 cells; format: cell-based; conditions: Hepa-1c1c7 tumour cells
T1 construct: Cathepsin B activity in the cell medium; endogenous in cells; host or cells: Hepa-1c1c7 (CRL-2026)
Procedure: (§4) For the determination of the cathepsin B’s inhibition activity, its superficial expression in two tumour cell lines (ACHN and Hepa-1c1c7 cells) and two non-tumour cell lines (TKPTS and FL83B cells) was evaluated by flow cytometry.
(§5) Cathepsin B activity in the cell medium was evaluated by using a fluorogenic substrate: Abz-Gly-Ile-Val-Arg~Ala-Lys(Dnp)-OH. This peptide substrate was purchased from Bachem AG (Bubendorf, Switzerland). The reactions were performed at 40 °C for 10 min [38]. Stock solutions of inhibitory compounds were prepared in DMSO (in a concentration of 10 mM). From these stock solutions, increasing concentrations of the inhibitory compounds (1 and 100 nM) were prepared. […] Fluorescence was measured with excitation/emission wavelength values of 320 and 420 nm, respectively, using the Cary Eclipse fluorescence spectrophotometer (Agilent Technologies, Melbourne, Australia).
(§6) All analyses were performed using version 9.0.0 of GraphPad Prism Software LLC from 1994–2020 (www.graphpad.com, accessed on 2 January 2023). Using non-linear regression, the values of 50% cytotoxic concentration (CC50) and 50% inhibitory concentration (IC50) were determined. In addition, a one-way ANOVA statistical analysis was performed to assess whether the differences between the values were statistically significant (p < 0.05; p < 0.001, Tukey’s multiple comparisons test). All experiments were performed in triplicate.

[3] = molecular target: T1, cathepsin B; test: Inhibition of cathepsin B activity, FL83B cells; format: cell-based; conditions: FL83B non-tumour cells
Procedure: as §4, §5, §6

[4] = molecular target: T1, cathepsin B; test: Inhibition of cathepsin B activity, TKPTS cells; format: cell-based; conditions: TKPTS non-tumour cells
Procedure: as §4, §5, §6

[5] = molecular target: T2, cathepsin B (Homo sapiens, UniProt P07858); test: Inhibition of cathepsin B activity, ACHN cells; format: cell-based; conditions: ACHN tumour cells
T2 construct: Cathepsin B activity in the cell medium; endogenous in cells; host or cells: ACHN (CRL-1611)
Procedure: as §4, §5, §6

[6] = SRB viability assay, TKPTS cells; format: cell-based; conditions: mouse, TKPTS non-tumour cell line, hypoxic conditions (1% O2)
Description: as §1, §2, §3

[7] = system: C57BL/6 mice; test: Acute toxicity in vivo; conditions: 4 mg/kg i.p.; for Physical aspect and weight after the third day of treatment: mice, day 3
Procedure: Adult male C57BL/6 mice weighing 25–35 g were purchased from the Centre for Laboratory Animals of the Faculty of Medicine from the University Autónoma of Madrid (Spain) and maintained under controlled temperature conditions (22 ± 2 °C), with a constant 12 h light-dark cycle and with access to food and water ad libitum.
Five groups (five mice per group) were selected for this study.
All animals were kept under observation for 7 days, during which their physical aspect, behaviour, and the number of deaths were recorded daily. The negative control (normal saline solution) received only the same quantity of the vehicle (distilled water). These tests were carried out in triplicate. All the surviving animals were euthanised at the end of the study, and their vital organs were individually observed by necropsy and checked for overt pathology.

[8] = system: Hepa-1c1c7 cells; test: SRB viability assay, Hepa-1c1c7 cells; format: cell-based; conditions: Mus musculus
Description: as §1, §2, §3

[9] = SRB viability assay, FL83B cells; format: cell-based; conditions: mouse, FL83B non-tumour cell line, hypoxic conditions (1% O2)
Description: as §1, §2, §3

[10] = ACHN tumour cell line, SRB, hypoxic conditions (1% O2), read-out: CC50
[11] = TKPTS normal kidney proximal tubule cells
[12] = Hepa-1c1c7 tumour cell line, SRB, 72 h, hypoxic conditions (1% O2), read-out: CC50
[13] = FL83B normal foetal liver hepatocyte cells

T1 sequence (P10605 80-339): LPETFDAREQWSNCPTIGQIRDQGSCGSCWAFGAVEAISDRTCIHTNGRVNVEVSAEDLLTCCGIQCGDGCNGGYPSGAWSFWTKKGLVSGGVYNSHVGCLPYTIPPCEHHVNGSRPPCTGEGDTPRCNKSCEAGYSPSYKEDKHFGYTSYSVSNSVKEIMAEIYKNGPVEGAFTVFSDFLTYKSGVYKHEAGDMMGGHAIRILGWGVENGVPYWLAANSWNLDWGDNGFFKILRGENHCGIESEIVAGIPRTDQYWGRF

SMILES | CC50 [1, 10] [nM] | Ki [2] [nM] | Ki [3] [nM] | Ki [4] [nM] | Ki [5] [nM] | CC50 at 72 h [6, 11] [nM] | Physical aspect and weight after the third day of treatment [7] | CC50 [8, 12] [nM] | CC50 at 72 h [9, 13] [nM] | CC50 ([1]; ACHN) [nM] | CC50 at 72 h [6] [nM] | CC50 ([8]; Hepa-1c1c7, 72 h) [nM] | CC50 at 72 h [9] [nM] | In vivo toxicity ([7]; murine model, 4 mg/kg)
CCCCCC1=NN(C(=O)CCOC(C)=O)O[C@H](CCCCC)C1 [Compound 2, 3-[(6R)-5,6-dihydro-4,6-dipentyl-2H-1,2,3-oxadiazin-2-yl]-3-oxopropyl acetate] | 220 ± 30 | 6.59 ± 0.65 | 0.66 ± 0.09 | 0.49 ± 0.05 | 5.67 ± 0.68 | 1060 ± 40 | weight loss and signs of disease (bowed backs, loss of hair shine, and slow movements) | 630 ± 50 | 1940 ± 80 |  |  |  |  | 
Cc1c2oc3c(C)ccc(C(=O)N[C@@H]4C(=O)N[C@H](C(C)C)C(=O)N5CCC[C@H]5C(=O)N(C)CC(=O)N(C)[C@@H](C(C)C)C(=O)O[C@@H]4C)c3nc-2c(C(=O)N[C@@H]2C(=O)N[C@H](C(C)C)C(=O)N3CCC[C@H]3C(=O)N(C)CC(=O)N(C)[C@@H](C(C)C)C(=O)O[C@@H]2C)c(N)c1=O [Actinomycin, Actinomycin D, reference compound] (I: T[dV]P[Sar][NMeV] / II: T[dV]P[Sar][NMeV]; ester I:1-I:C, II:1-II:C; linker I:N-II:N via Actinocin(9to1)) |  |  |  |  |  |  |  |  |  | 9 ± 0.6 | 3 ± 0.5 | 14 ± 0.6 | 6 ± 0.6 | 
CCCCCC1=NN(C(=O)CCO)O[C@H](CCCCC)C1 [Compound 1, 1-[(6R)-5,6-dihydro-4,6-dipentyl-2H-1,2,3-oxadiazin-2-yl]-3-hydroxypropan-1-one] | 760 ± 90 | 3.37 ± 0.24 | 2.61 ± 0.02 | 2.13 ± 0.04 | 3.06 ± 0.13 | 1100 ± 50 | active and showed no apparent weight loss | 1250 ± 60 | 2360 ± 100 |  |  |  |  | 
CCCCCC1=NN(C(=O)CCOC(=O)CCC(=O)O)O[C@H](CCCCC)C1 [Compound 3, 4-{3-[(6R)-5,6-Dihydro-4,6-dipentyl-2H-1,2,3-oxadiazin-2-yl]-3-oxopropoxy}-4-oxobutanoic acid] | 730 ± 100 | 1.76 ± 0.24 | 4.55 ± 0.81 | 3.29 ± 0.4 | 1.52 ± 0.13 | 1620 ± 60 | active and showed no apparent weight loss | 910 ± 80 | 2800 ± 90 |  |  |  |  | no in vivo toxicity; also recorded: did not show toxicity in vivo
CCCNC(=O)[C@H]1O[C@@H]1C(=O)N[C@H](C(=O)N1CCC[C@H]1C(=O)O)[C@@H](C)CC (relative stereo) [CA 074, reference compound] |  | 5.99 ± 0.64 | 3.08 ± 0.19 | 2.39 ± 0.12 |  |  | active and showed no apparent weight loss |  |  |  |  |  |  | 
